Where no end group is shown, it is not given here. The star is where a group is joined. Biotin = O=C1N[C@H]2[C@H](CS[C@H]2CCCCC(=O)*)N1
B1: biotin-Arg11 (peptide)
peptide: Biotin-RRRRRRRRRRR
notes: polyarginine cell-penetrating peptide of 11 arginines; Peptides were synthesized with or without the N-terminal biotin; ELISA and SPR used the biotinylated form; also called biotinylated Arg11; polyarginine CPP; source: synthetic peptide (GenScript Biotech Corp, >80% purity)

What was measured:
[1] = test system: SERCA (rat soleus homogenates; SERCA2a); experiment: Oxalate-supported Ca2+ uptake, leak and releasable Ca2+ in rat soleus homogenates; type: biochemical, rat (Wistar); conditions: 40 µmol/L CPP without cargo, 5 min, 37 °C, pH 7.0; nruns Ctr, TAT, Arg9, Arg11 = 6, 5, 6, 6
Excerpt: (§1) Ca^2+ handling was also examined in homogenates prepared from mouse left ventricle, rat soleus, and rat extensor digitorum longus (EDL) muscles using methods described by O’Brien and modified by Li et al.. Freshly excised left ventricles and muscles were weighed and homogenized in ice cold homogenization buffer (1:10 wet weight/vol, pH 7.9) containing (in mmol/L) 300 sucrose, 5 NaN3, 1 EDTA, 40 L-histidine, 40 Tris HCl, and protease inhibitors (Complete EDTA-free No 05056489001, Roche, Mannheim, Germany). Homogenization was performed with a Polytron 1200 (Kinematica AG, Luzern, Switzerland) at 25,000 rpm for 3 × 20 s, with a 20 s break between bursts. Homogenates were then aliquoted, frozen in liquid N2, and stored at −80 °C until use.
(§2) 10–20 µL of freshly thawed and vortexed homogenate was added to 250 µL of “assay” buffer, containing (in mmol/L) 165 KCl, 22 Hepes, 7.5 oxalate, 11 NaN3, 0.0055 TPEN, 4.5 MgCl2, 9 Tris HCl, and 0.002 Fura-2 salt (pH 7.0, 37 °C). […]
(§3) Ca^2+ fluxes were monitored as Fura-2 fluorescence ratio (340 nm/390 nm) using a Hidex Sense Multimodal Microplate Reader (Kem-En-Tec Nordic AS, Uppsala, Sweden). […] The fluorescence ratio was calibrated to [Ca^2+] using the following equation: [Ca^2+] = Kd × ((R − Rmin)/(Rmax − R)) × (Sf2/Sb2), where R is the 340 nm/390 nm fluorescence ratio, and Kd is the dissociation constant of Fura-2 and Ca^2+ (224 nmol/L). Rmin is the fluorescence ratio at very low [Ca^2+] and Rmax is the ratio at saturating [Ca^2+], obtained by sequentially adding 3.3 mmol/L EGTA and 4.8 mmol/L CaCl2 to the well at the end of each recording. Sf2/Sb2 is the ratio of measured fluorescence intensity at 390 nm when Fura-2 is Ca^2+-free (3.3 mmol/L EGTA) or Ca^2+-bound (4.8 mmol/L CaCl2).
(§4) Ca^2+ recordings were smoothed using TableCurve 2D (V 5.01, Systat Software Inc., Palo Alto, CA, USA) prior to analysis. After the addition of Na4ATP, the rate constant for Ca^2+ uptake (k) was calculated by fitting the uptake curve to Ca^2+ = Ca^2+0 + ae^−t×k (Sigmaplot V14.0, Systat Software Inc.). […]

[2] = test system: SERCA (SR vesicles from left ventricle of PLB knockout mice); experiment: Oxalate-supported SR Ca2+ uptake and leak in left ventricular homogenates of phospholamban knockout mice; type: biochemical, mouse (phospholamban knockout); conditions: 40 µmol/L CPP without cargo, 5 min, 37 °C, pH 7.0; nruns Ctr, TAT, Arg9, Arg11 = 58, 12, 17, 15
Excerpt: as §1, §2, §3, §4

[3] = test system: SERCA (SR vesicles from mouse left ventricle; SERCA2a); experiment: Oxalate-supported SR Ca2+ uptake and leak in mouse left ventricular homogenates (wild-type); type: biochemical, mouse (C57BL/6NT); conditions: 40 µmol/L CPP without cargo, 5 min, 37 °C, pH 7.0; uptake started with Na4ATP; Fura-2 340/390; nruns Ctr, TAT, Arg9, Arg11 = 69, 14, 23, 24
Excerpt: as §1, §2, §3, §4

[4] = test system: rat left ventricular cardiomyocytes; experiment: Field-stimulated whole-cell Ca2+ transients in isolated rat cardiomyocytes; type: cell-based, rat (Wistar); conditions: versus untreated Ctr, 5 µmol/L, 1 h preincubation, 1 Hz, 37 °C
Excerpt: For single cell experiments, rat left ventricular cardiomyocytes were isolated as described previously. In brief, rats were anaesthetized by inhalation of a mixture of 5% isoflurane and 95% O2. Hearts were then rapidly excised and mounted via the aorta on a Langendorff apparatus to enable retrograde perfusion with buffer containing collagenase Type II (Worthington Biochemical Corporation, Lakewood, NJ, USA). Following digestion, the heart was cut down, diced, and agitated, and isolated cardiomyocytes were then filtered, washed, and sedimented. Cells were stored in a solution containing (in mmol/L) 130 NaCl, 5.4 KCl, 25 HEPES, 0.5 MgCl2, 0.4 NaH2PO4, 22 glucose, 0.2 CaCl2 (pH 7.40, 22 °C) until use, within 6 h of isolation.
Prior to experiments, cardiomyocytes were preincubated for 1 h with 5 µmol/L of the individual CPPs added to the cell storage solution. During the last 10 min of incubation, cells were additionally loaded with fluo-4 AM (5 µmol/L, Thermo Fisher Scientific, Waltham, MA, USA) for Ca^2+ imaging. The cells were then plated on the stage of an inverted microscope and perfused with HEPES-Tyrode solution containing (in mmol/L) 140 NaCl, 0.5 MgCl2, 5.0 HEPES, 5.5 glucose, 0.4 NaH2PO4, 5.4 KCl, and 1.8 CaCl2 at pH 7.4, 37 °C. Whole-cell Ca^2+ transients were recorded by wide-field photometry, as described previously, using a D-104 microscope photometer and photomultiplier tube (Horiba Ltd., Kyoto, Japan). During field stimulation at 1 Hz, fluorescence was excited by a 475 nm light-emitting diode, and emission was collected at >510 nm.
Ca^2+ signals were analysed by first subtracting background fluorescence values from the cellular recordings. Ca^2+ transient magnitude was calculated as peak fluorescence divided by resting fluorescence (F/F0). The decay time of Ca^2+ transients was assessed using a monoexponential fit of the declining phase of the Ca^2+ transient to calculate tau (s), using Clampfit 10.4 software (Molecular Devices LLC, Sunnyvale, CA, USA).

[5] = test system: SERCA (rat EDL homogenates; SERCA1); experiment: Oxalate-supported Ca2+ uptake, leak and releasable Ca2+ in rat EDL homogenates; type: biochemical, rat (Wistar); conditions: 40 µmol/L, 5 min, 37 °C, pH 7.0; without (Figure 4B) and with cargo (Figure 4D)
Excerpt: as §1, with “use. […]” for “use.”
as §3, with “Sf2/Sb2 is the ratio of measured fluorescence intensity at 390 nm when Fura-2 is Ca^2+-free (3.3 mmol/L EGTA) or Ca^2+-bound (4.8 mmol/L CaCl2).” left out

rat SERCA3 = experiment: Oxalate-supported Ca2+ uptake in homogenates of HEK293 cells transfected with SERCA3; type: biochemical; conditions: nruns Ctr, Arg9, Arg11 = 4, 5, 5
Protocol: (§5) 10–20 µL of freshly thawed and vortexed homogenate was added to 250 µL of “assay” buffer, containing (in mmol/L) 165 KCl, 22 Hepes, 7.5 oxalate, 11 NaN3, 0.0055 TPEN, 4.5 MgCl2, 9 Tris HCl, and 0.002 Fura-2 salt (pH 7.0, 37 °C). Each CPP was added to attain a final concentration of 40 µmol/L and incubated for 5 min at 37 °C prior to experiments.
as §3, with “Sweden). Ca^2+ uptake by the vesicles was initiated by the addition of Na4ATP (2.2 mmol/L) and blocked by the application of thapsigargin (1.5 µmol/L) after 12 min [16].” for “Sweden).”, “CaCl2). […]” for “CaCl2).”

rat SERCA2a = experiment: Oxalate-supported Ca2+ uptake in homogenates of HEK293 cells transfected with SERCA2a; type: biochemical; conditions: for Ca2+ uptake, SERCA2a-transfected cells, versus untreated: nruns Ctr, Arg9, Arg11 = 12, 16, 16
Protocol: as §5
(§6) Ca^2+ fluxes were monitored as Fura-2 fluorescence ratio (340 nm/390 nm) using a Hidex Sense Multimodal Microplate Reader (Kem-En-Tec Nordic AS, Uppsala, Sweden). Ca^2+ uptake by the vesicles was initiated by the addition of Na4ATP (2.2 mmol/L) and blocked by the application of thapsigargin (1.5 µmol/L) after 12 min [16]. SR Ca^2+ content, i.e., the “releasable Ca^2+” was estimated by adding the ryanodine receptor opener 4-Chloro-m-cresol (CmC, 5.5 mmol/L). The fluorescence ratio was calibrated to [Ca^2+] using the following equation: [Ca^2+] = Kd × ((R − Rmin)/(Rmax − R)) × (Sf2/Sb2), where R is the 340 nm/390 nm fluorescence ratio, and Kd is the dissociation constant of Fura-2 and Ca^2+ (224 nmol/L). Rmin is the fluorescence ratio at very low [Ca^2+] and Rmax is the ratio at saturating [Ca^2+], obtained by sequentially adding 3.3 mmol/L EGTA and 4.8 mmol/L CaCl2 to the well at the end of each recording. Sf2/Sb2 is the ratio of measured fluorescence intensity at 390 nm when Fura-2 is Ca^2+-free (3.3 mmol/L EGTA) or Ca^2+-bound (4.8 mmol/L CaCl2).
as §4, with “Inc.). Ca^2+ leak from the vesicles was calculated as the linear rise (slope) of the Ca^2+ signal after blockade of SERCA by thapsigargin. Leak measurements were normalized to SR content, determined as the peak [Ca^2+] after addition of CmC.” for “Inc.).”

rat SERCA2b = experiment: Oxalate-supported Ca2+ uptake in homogenates of HEK293 cells transfected with SERCA2b; type: biochemical; conditions: for Ca2+ uptake, SERCA2b-transfected cells, versus untreated: nruns Ctr, Arg9, Arg11 = 12, 12, 12
Protocol: as §5, §6
as §4, with “Inc.). Ca^2+ leak from the vesicles was calculated as the linear rise (slope) of the Ca^2+ signal after blockade of SERCA by thapsigargin. Leak measurements were normalized to SR content, determined as the peak [Ca^2+] after addition of CmC.” for “Inc.).”

rat SERCA1 = experiment: Oxalate-supported Ca2+ uptake in homogenates of HEK293 cells transfected with SERCA1; type: biochemical; conditions: nruns Ctr, Arg9, Arg11 = 4, 5, 5
Protocol: as §5
Ca^2+ fluxes were monitored as Fura-2 fluorescence ratio (340 nm/390 nm) using a Hidex Sense Multimodal Microplate Reader (Kem-En-Tec Nordic AS, Uppsala, Sweden). Ca^2+ uptake by the vesicles was initiated by the addition of Na4ATP (2.2 mmol/L) and blocked by the application of thapsigargin (1.5 µmol/L) after 12 min [16]. […] The fluorescence ratio was calibrated to [Ca^2+] using the following equation: [Ca^2+] = Kd × ((R − Rmin)/(Rmax − R)) × (Sf2/Sb2), where R is the 340 nm/390 nm fluorescence ratio, and Kd is the dissociation constant of Fura-2 and Ca^2+ (224 nmol/L). Rmin is the fluorescence ratio at very low [Ca^2+] and Rmax is the ratio at saturating [Ca^2+], obtained by sequentially adding 3.3 mmol/L EGTA and 4.8 mmol/L CaCl2 to the well at the end of each recording. Sf2/Sb2 is the ratio of measured fluorescence intensity at 390 nm when Fura-2 is Ca^2+-free (3.3 mmol/L EGTA) or Ca^2+-bound (4.8 mmol/L CaCl2). […]

12xHis-SERCA2(111-253) = target: T1, 12xHis-SERCA2(111-253) (UniProt P16615 111-253); experiment: SPR; Biacore X100; biotinylated Arg11 immobilised on an SA chip at 744.3 RU; 12xHis-SERCA2(111-253) injected at 0.7–200 nM, 0.19–50 nM or 12.5–200 nM, 30 µL/minute for 180 s; dissociation 600 or 1000 s; 1 × Biacore running buffer; one-to-one Langmuir model; conditions: both partners purified
T1 construct: also called recombinant SERCA2 polypeptide containing the A-domain; actuator domain of SERCA2; source: recombinant, generated by Genscript; dialysed into Biacore running buffer for SPR
T1 sequence (P16615 111-253): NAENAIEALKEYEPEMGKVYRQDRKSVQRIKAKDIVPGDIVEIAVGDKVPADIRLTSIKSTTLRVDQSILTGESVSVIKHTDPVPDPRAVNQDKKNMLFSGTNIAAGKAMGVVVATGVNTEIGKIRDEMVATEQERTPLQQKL

Row | Molecule | Ca2+ uptake rate in soleus, effect versus untreated control [1] | Ca2+ uptake, PLB knockout, effect versus untreated control [2] | Ca2+ uptake rate, effect versus untreated control [3] | effect on Ca2+ transient decay (tau), in words [4] | Ca2+ uptake rate in EDL, effect versus untreated control [5] | Ca2+ uptake rate, SERCA3-transfected cells, versus untreated (rat SERCA3) | Ca2+ uptake, SERCA2a-transfected cells, versus untreated (rat SERCA2a) | Ca2+ uptake, SERCA2b-transfected cells, versus untreated (rat SERCA2b) | Ca2+ uptake rate, SERCA1-transfected cells, versus untreated (rat SERCA1) | inhibition of Ca2+ uptake compared with Arg9, SERCA2a (rat SERCA2a; comparison Arg11 versus Arg9) | inhibition of Ca2+ uptake compared with Arg9, SERCA2b (rat SERCA2b; comparison Arg11 versus Arg9) | increase in tau value for Ca2+ removal (Ca2+ transient decay) ([4]; p = 0.021, ncells Ctr 37, Arg11 31, 4 hearts) | Kd (12xHis-SERCA2(111-253)) | koff (12xHis-SERCA2(111-253)) | kon (12xHis-SERCA2(111-253))
1 | RKKRRQRRR [TAT, reference compound] | did not alter the rate of Ca^2+ uptake | did not observe inhibition of SERCA2 activity | no significant effect | No such effects were noted | did not observe inhibition of SERCA2 activity | – | – | – | – | – | – | – | – | – | –
2 | RRRRRRRRR [Arg9] | lesser but statistically significant inhibition | lesser but statistically significant inhibition | slowed Ca^2+ uptake, albeit to a lesser extent than Arg11 | No such effects were noted | – | Neither Arg9 nor Arg11 altered the Ca^2+ uptake rate | significantly slowed Ca^2+ uptake | significantly slowed Ca^2+ uptake | Neither Arg9 nor Arg11 altered the Ca^2+ uptake rate | – | – | – | – | – | –
3 | RRRRRRRRRRR [Arg11] | most marked effect | tending to cause the most marked inhibition of Ca^2+ uptake | marked slowing of Ca^2+ uptake | slowing of Ca^2+ transient decay | – | Neither Arg9 nor Arg11 altered the Ca^2+ uptake rate | significantly slowed Ca^2+ uptake | significantly slowed Ca^2+ uptake | Neither Arg9 nor Arg11 altered the Ca^2+ uptake rate | tended to be more marked than that induced by Arg9 | tended to be more marked than that induced by Arg9 | 14% | – | – | –
4 | B1 | – | – | – | – | – | – | – | – | – | – | – | – | 0.4 nM | 6.6e-05 s⁻¹ | 210000 M⁻¹ s⁻¹
